The numbers were not newly measured in patent publication US20240360088A1, “WATER-SOLUBLE NERVE DYES FOR IN VIVO NERVE-SPECIFIC IMAGING” (Oregon Health & Science University, priority 2021, published 2024), which cites them from elsewhere.

In this data set the test system is rodent nerves. The conditions noted are these: for nerve specificity: direct and systemic administration, preclinical.

Take `CC/N=c1/cc2oc3cc(NCC)c(C)cc3nc-2cc1C` [Oxazine 4]: the nerve specificity result is “high nerve specificity”. The nerve-specific signal entry (systemic administration) is recorded as “nerve-specific signal following systemic administration in all rodent nerves”.
As for `CCNc1cc2oc3cc(=[N+](CC)CC)ccc-3nc2cc1C` [Comparative Example No. 1, 3-(diethyl-14-azaneylidene)-N-ethyl-8-methyl-3H-phenoxazin-7-amine], the nerve specificity result is given as “high nerve specificity”. The “fluorescence signal for real time imaging” value (co-solvent formulation as vehicle for intravenous injection) is given as “adequate fluorescence signal”.
